Molecules are shown by their SMILES.

The text below walks through data of patent US7745428B2, “Imidazo[1,2-A]pyridine having anti-cell-proliferation activity” (AstraZeneca AB, priority 2005, dated 2010).

The target of the assay is T1, CDK2/Cyclin E (Homo sapiens, UniProt P24941).
T1 construct: The open reading frames of CDK2 and Cyclin E were isolated; made in house; host or cells: Sf21 (Spodoptera frugiperda) insect cells, baculovirus co-infection; substrate in E. coli BL21 (DE3) pLysS
Kind of assay: in vitro kinase assay (Scintillation Proximity Assay), CDK2/Cyclin E, GST-Rb substrate. To be noted: in-vitro SPA kinase assay, 0.2 μM ATP, room temperature, 60 minutes; read-out: CDK2 inhibitory activity (CDK2 enzyme). Type of assay: biochemical. The method, then: The compounds were tested in an in vitro kinase assay in 96 well format using Scintillation Proximity Assay (SPA—obtained from Amersham) for measuring incorporation of [γ-33-P]-Adenosine Triphosphate into a test substrate (GST-Retinoblastoma protein; GST-Rb). In each well was placed the compound to be tested (diluted in DMSO and water to correct concentrations) and in control wells either roscovitine as an inhibitor control or DMSO as a […] control.
Approximately 0.2 μl of CDK2/Cyclin E partially-purified enzyme (amount dependent on enzyme activity) diluted in 25 μl incubation buffer was added to each well then 20 μl of GST-Rb/ATP/ATP33 mixture (containing 0.5 μg GST-Rb and 0.2 μM ATP and 0.14 μCi[γ-33-P]-Adenosine Triphosphate in incubation buffer), and the resulting mixture shaken gently, then incubated at room temperature for 60 minutes. […]
The plates were sealed with Topseal-S plate sealers, left for two hours then spun at 2500 rpm, 1124×g., for 5 minutes. The plates were read on a Topcount for 30 seconds per well. […]
The open reading frames of CDK2 and Cyclin E were isolated by reverse transcriptase-PCR using HeLa cell and activated T cell mRNA as a template and cloned into the insect expression vector pVL1393 (obtained from Invitrogen 1995 catalogue number: V1392-20). […]
On the technique in general: In a scintillation proximity assay essentially only radioactivity close to the scintillant gives light.

`CN1CCN(C(=O)c2ccc(Nc3nccc(-c4cnc5ccccn45)n3)cc2)CC1` [Example 2, [4-(4-Imidazo[1,2-a]pyridin-3-yl-pyrimidin-2-ylamino)-phenyl]-(4-methyl-piperazin-1-yl)-methanone]: the IC50 was 0.09 µM.
